In ChEMBL document CHEMBL1145186, “Extravascular transport of drugs in tumor tissue: effect of lipophilicity on diffusion of tirapazamine analogues in multicellular layer cultures” (J Med Chem, 2005):

Assay: Partition coefficient (logP) of the compound
Format: physicochemical

Compound	logP
COCCc1cccc(Nc2n[n+]([O-])c3ccccc3[n+]2[O-])c1	1.51
Cc1cccc2c1[n+]([O-])nc(N)[n+]2[O-]	0.24
CCN(CC)c1cccc2c1[n+]([O-])nc(N)[n+]2[O-]	0.83
Cc1ccc2c(c1)[n+]([O-])nc(N)[n+]2[O-]	0.127
CS(=O)(=O)c1cccc2c1[n+]([O-])nc(N)[n+]2[O-]	-1.38
Nc1n[n+]([O-])c2cccc(Cl)c2[n+]1[O-]	-0.102
Nc1n[n+]([O-])c2c(C(F)(F)F)cccc2[n+]1[O-]	0.48
Nc1n[n+]([O-])c2cc(C(F)(F)F)ccc2[n+]1[O-]	0.82
O=c1c2ccccc2[nH]c2ccccc12 [ACRIDONE]	2.98

Further lines, results first:

logP	Compound
1.43	[O-][n+]1nc(Nc2ccccc2)[n+]([O-])c2ccccc21
0.441	Nc1n[n+]([O-])c2cc(Cl)ccc2[n+]1[O-]
0.068	Cc1ccc2c(c1)[n+]([O-])c(N)n[n+]2[O-]
-1.15	CS(=O)(=O)c1ccc2c(c1)[n+]([O-])nc(N)[n+]2[O-]
0.166	Nc1n[n+]([O-])c2c(Cl)cccc2[n+]1[O-]
-2.62	OC[C@@H](O)[C@@H](O)[C@H](O)[C@H](O)CO [MANNITOL]
-0.342	Nc1n[n+]([O-])c2ccccc2[n+]1[O-] [TIRAPAZAMINE]
-2.01	NC(N)=O [UREA]
